Test results as given in patent publication US20130190169A1, “SYNERGISTIC FUNGICIDAL COMBINATION” (priority 2010, published 2013).

Test system: strain Mg Ref 1 of M. graminicola
Test: In vitro evaluation of the sensitivity level of M. graminicola towards epoxiconazole and folpet alone or in admixture (mycelial growth by optical density, 96-well microtitre plate, Wadley method)
Format: cell-based, Mycosphaerella graminicola
Settings: Zymoseptoria tritici, 168 h, fungicide used alone, 7 days, 19° C., OD 405 nm
Description: The Wadley method is well-known method for determining whether synergy exists. In the Wadley method, synergistic activity is determined from dose response curves. With this method, the efficacy of the active ingredient (“a.i.”) is determined by comparing the degree of fungal attack on treated plants with that on untreated, similarly inoculated and incubated check plants. Each a.i. is generally tested at multiple (e.g., 6) concentrations, and dose response curves are generated. The dose response curves are used to establish the EC50 (i.e., the effective concentration of a.i. providing 50% disease control) of the individual compounds as well as of the combinations (EC50observed). The experimentally found values of the mixture at a given weight ratio are compared ith the values that would have been found were only a complementary efficacy of the components was present (EC50 (A+B)expected). The EC50 (A+B)expected is generally calculated according to Wadley (Levi et al., EPPO-Bulletin 16, 1986, 651-657) or (Wadley, F. M., U.S. Dep. Agric., Res. Adm., Bur. Entomol. And Plant Quar. ET-223, 1945, 8) as follows:
EC50(A+B)expected−(a+b)/[(a/EC50(A)observed)+b/EC50(B)observed)] […]
The degree of mycelial growth in the liquid medium was assessed by measuring the optical density of the wells containing the spore suspensions and fungicide concentrations. […]

SMILES | EC50
O=C1c2ccccc2C(=O)N1SC(Cl)(Cl)Cl [Folpet, N-(trichloromethanesulfenyl)phthalimide] | 2.39 mg/L
Fc1ccc([C@]2(Cn3cncn3)O[C@H]2c2ccccc2Cl)cc1 (racemic) [Epoxiconazole, (2RS;3SR)-1-[3-(2-chlorophenyl)-2,3-epoxy-2-(4-fluorophenyl)propyl]-1H-1,2,4-triazole] | 0.01 mg/L
